Where “and” joins values, the source holds several entries; their conditions need not be identical. Equal entries are not always repeated.
What was measured:
[1] = system: NNK-induced DNA damage in liver tissues; assay: NNK-induced DNA damage in A/J mouse liver tissues; format: in vivo, A/J mice; settings: diet Day 1-Day 7, 24 h after NNK; data not shown
Protocol: DNA was isolated and purified from ˜100 mg lung and liver tissues of each mouse, following Genomic-tip 100/G protocol from Qiagen Corp (Valencia, Calif.).
After one-week acclimation, A/J mice were weighed and randomized into ten groups (3 mice per group except for Group 1 that had one mouse as the negative control) and switched to the AIN-93 G diet on a date defined as Day 1. Mice in Groups 1 and 2 were given the AIN-93 G diet during Day 1-Day 7. Mice in Groups 3-10 were given the AIN-93 G diets supplemented with kava, (+)-DHK, (+)-DHM, and synthetic (±)-DHM respectively at the specified dose during Day 1-Day 7. Mice in Groups 2-10 were given a single dose of NNK at 100 mg/kg bodyweight in saline (0.1 ml) via i.p. injection at the beginning of Day 7 while the mouse in Group 1 was given saline (0.1 ml). Mice were euthanized by CO2 overdosing 24 h after NNK treatment, and lung and liver tissues were collected and stored at −80° C. until DNA isolation. A set of NNK-induced DNA adducts (O^6-mG, 7-mG, 7-pobG, O^6-pobdG, O^2-pobdT, 7-phbG, O^6-phbdG and O^2-phbdT) were quantified by following reported procedures (Leitzman, P et al. (2014) Cancer. Prev. Res., 7: 86-96; Peterson, L A et al. (2013) Chem. Res. Toxicol. 26: 1464-1473; Upadhyaya, P et al. (2008) Chem. Res. Toxicol. 21: 1468-1476). For 7-mG isolation, DNA (30 μg) was dissolved in 10 mM sodium phosphate buffer, pH 7 (500 μL) and spiked with [^13C1^2H3]7-mG (10 pmol). Samples were heated to 80° C. for 30 minutes. An aliquot (100 μL) was removed for 7-mG analysis.

[2] = system: NNK-induced lung tumorigenesis; assay: NNK-induced lung adenoma formation in A/J mice; format: in vivo; settings: for reduction of adenoma multiplicity / reduction of adenoma incidence / adenoma multiplicity: Example 4, Day 119; for adenoma multiplicity: NNK control 13.9±6.9; for minimum effective dose: dietary dose against NNK-induced lung adenoma formation
Protocol: Female A/J mice, 5-6 weeks of age from the Jackson Laboratory (Bar Harbor, Me.), were handled according to animal welfare protocols approved by IACUC at the University of Minnesota. […] After one-week acclimation, mice were weighed, randomized into different groups and switched to AIN-93G-powdered diet, defined as Day 1. The number of mice in each group was specified in the Result Section. On Day 7 and Day 14, mice in the negative control groups received 0.1 mL physiological saline solution while mice in the other groups received NNK (100 and 67 mg/kg respectively in 0.1 mL of physiological saline solution) via i.p. injection. At the end of Day 21, mice were switched to AIN-93M-powdered diet until the end of the study. Diet consumption was measured twice weekly and bodyweight was monitored weekly. All mice were euthanized with an overdose of carbon dioxide. The lungs were collected and tumors on the surface of the lung were counted.
Data on lung adenoma multiplicity were reported as mean±SD (n=5-40). […] For Experiment 2, unpaired t-test was used for comparison between NNK control and kava treatment groups. Two-sided p-value≤0.05 was considered statistically significant. Data on DNA adducts were reported as mean±SD (n=3). For the time-course study, unpaired […] was used for comparisons between NNK control and kava treatment groups. Two-sided p-value≤0.05 was considered statistically significant: *p<0.05, **p<0.01, and ***p<0.001. For the 24-h time point study, one-way ANOVA was used to compare means.
After one-week acclimation, mice were weighed, randomized into eight groups and switched to the AIN-93 G diet on a date defined as Day 1. The number of mice in each group is specified in the Results Section (FIG. 36). Mice were fed diets supplemented with different compounds at the dose specified in the Results Section during Day 1-Day 14. On Day 7 and Day 14, mice in the negative control group received 0.1 mL of saline solution while mice in the other groups received NNK (100 and 67 mg/kg, respectively, in 0.1 mL of saline solution) via i.p. injection. At the end of Day 21, mice were switched to the AIN-93 M diet until the end of the study. The diet was replenished twice weekly. The diet consumption was measured twice weekly and the bodyweight was monitored weekly. This study was terminated at the end of Day 119. All mice were euthanized with CO2 overdosing.

[3] = system: PhIP-induced DNA damage in hepe1c1c7 cells; assay: PhIP-induced DNA damage in hepe1c1c7 cells; format: cell-based, rodent; settings: 1, 5 and 25 μM co-treated with PhIP (10 μM) for 24 hours
Description: (§1) The goal of this study was to explore the potential scope of dihydromethysticin in blocking/reducing different carcinogen-induced DNA damage and detoxifying such carcinogens. […] Benzo(a)pyrene (BaP) is a representative polyaromatic hydrocarbon-based carcinogen in cigarette smoke and is present in various industrial/motor exhaust/waste. BaP is a human carcinogen to lung, stomach and other tissues. A rodent liver cancer cell line was used in these studies. Briefly, the hepe1c1c7 cells were co-treated with dihydromethysticin (1, 5, and 25 μM) and PhIP (10 μM) for 24 hours with DNA isolated and PhIP-based DNA damage quantified (FIG. 28A). […] Similarly the cells were co-treated with dihydromethysticin (1, 5, and 25 μM) and BaP (0.3 μM) for 3 hours with DNA isolated and BaP-based DNA damage quantified (FIG. 28B).

[4] = system: APAP-induced hepatotoxicity; assay: Short-term combination study: potentiation of APAP-induced hepatotoxicity in C57BL/6 mice; settings: 3-day daily gavage, DHM 37.5 mg/kg, FKB 11.5 mg/kg
Description: Six week-old female C57BL/6J mice (Jackson Laboratories, ME) were housed at specific pathogen-free animal facilities of Research Animal Resources, University of Minnesota with free access to standard rodent food and water. All mice were acclimatized for one week before being used for experiments. Mice were gavaged with dose formulations at the indicated doses and times, euthanized by CO2 overdosing with necropsy performed by experienced researchers.
The short-term combination studies were designed to evaluate the potential synergism of kava and its chemicals to APAP induced hepatotoxicity. C57BL/6 mice were randomized (8-15 mice per group) and were administered with PEG-400 (200 μL), kava (500 mg/kg bodyweight), DHM or FKA and FKB in PEG-400 (200 μL) at the indicated doses daily via oral gavage for two days. On the third day, mice in the respective groups were co-administered with APAP (800 mg/kg bodyweight) in PEG-400 (200 μL). Bodyweight was recorded daily. Necropsies were performed 24 hours after the last gavage by experienced researchers. Serum from each mouse was analyzed for ALT and AST. Livers were collected and preserved in 10% neutral buffered formalin. Appropriately fixed tissues were processed into paraffin blocks using standard histological techniques, and 5 μm sections were cut and stained with hematoxylin and eosin (H&E).
The clinical chemistry data were reported as mean±SD (n=4-15). […] One-way analysis of variance (ANOVA) was used to compare the means among different groups in the short-term combination studies. Dunnett's test was used for comparisons of APAP and other treatment groups when the one-way ANOVA analysis was statistically significant. p-value≤0.05 was considered statistically significant. All analyses were conducted in GraphPad Prism 4 (GraphPad Software, Inc. La Jolla, Calif.).

[5] = system: human lung H2009 cancer cell line tumors; assay: H2009 human lung cancer xenograft in nude mice; format: in vivo; settings: 40 mg/kg bodyweight via i.p. injection or oral gavage
Protocol: Typically human origin lung cancer cells were cultured and mixed with Metrigel. 2-5×10^6 cells were inoculated in the nude mice. Mice were randomized into different groups when the tumor size reached ˜50 mm^3. Treated mice received drug candidate at a dose of 40 mg/kg bodyweight via i.p. injection or oral gavage. The tumor size was monitored once or twice a week until 5 weeks since the treatment or when the size of the tumors >1000 mm^3. Mouse bodyweight was monitored once a week. Mice were CO^2 euthanized and the tumors were collected and weighed. Major organs were grossly examined and weighed as well.

[6] = system: BaP-induced DNA damage in hepe1c1c7 cells; assay: BaP-induced DNA damage in hepe1c1c7 cells; format: cell-based, rodent; settings: 1, 5 and 25 μM co-treated with BaP (0.3 μM) for 3 hours
Description: as §1

Structure (SMILES)	effect on NNK-induced DNA damage in the liver tissues [1]	reduction of adenoma multiplicity ([2]; 0.05 mg/g of diet (50 ppm) Day 1-Day 14)	reduction of adenoma incidence ([2]; 0.05 mg/g of diet Day 1-Day 14)	adenoma multiplicity ([2]; 0.05 mg/g of diet Day 1-Day 14)	reduction of adenoma incidence ([2]; 0.5 mg/g of diet Day 1-Day 14)	reduction of adenoma multiplicity ([2]; 0.5 mg/g of diet Day 1-Day 14)	adenoma multiplicity ([2]; 0.5 mg/g of diet Day 1-Day 14)	minimum effective dose [2]	PhIP-induced DNA damage [3]	serum ALT and AST when combined with APAP, vs APAP alone ([4]; APAP 800 mg/kg on third day, FKA and FKB 1, 2, 4 times abundance)	serum ALT and AST, treatment alone (without APAP) ([4]; kava 500 mg/kg, FKA and FKB at 1, 2 and 4 times their abundance in kava 500 mg/kg)	tumor volume relative to control group [5]	BaP-induced DNA damage [6]
COC1=CC(=O)O[C@@H](CCc2ccc3c(c2)OCO3)C1 [(+)-DHM, (+)-dihydromethysticin]	none of the treatments had significant effects	97% and 97.1%	40%	0.6±0.5 lung adenoma/mouse	40%	97.1%	0.6±0.5 lung adenoma/mouse	lower than 0.05 mg/g	–	–	–	–	–
COC1=CC(=O)O[C@@H](CCc2ccc3c(c2)OCO3)C1 [DHM, dihydromethysticin]	–	–	–	–	–	–	–	lower than 0.05 mg/g	effectively and dose-dependently reduced	no effect	no effect	significantly reduced	effectively and dose-dependently reduced

Source: patent US10918687B2, “Kava derived therapeutic compounds and methods of use thereof” (KUALITY HERBCEUTICS LLC, priority 2013, dated 2021)
